Where “and” joins values, the source holds several entries; their conditions need not be identical. Equal values may be shown once. Read-outs that look alike come from different tables or passages of the source.
Columns and labels:
wheat plants = test: Foliar administration and thermal imaging of leaf temperature, wheat; assay type: in vivo, Triticum aestivum
Protocol: (§1) Thermal imaging was carried out as described ([Yang et al., 2016]). An assessment of the efficacy of ABA and CCPs was conducted by using 35-day-old Arabidopsis and 30-day-old wheat plants. Stock solutions (10 mM) of CCPs and ABA dissolved in dimethyl sulfoxide (DMSO) were diluted to the respective ligand concentrations (10, 30, 100 µM) in water containing 0.01% (v/v) Tween 20. Aqueous Tween 20 solutions supplemented with 0.1%, 0.3%, and 1% DMSO served for mock treatments. The solutions were sprayed onto the leaf surface until the run-off of droplets. One day after application (unless otherwise indicated), thermal imaging was conducted using the InfraTec instrument (IR-TCM 384, InfraTec, Dresden, Germany). The leaf temperature of Arabidopsis was determined as the average temperature of all leaves. The leaf temperature of wheat was determined as described ([Yang et al., 2019]).

Arabidopsis plants [1] = system: Arabidopsis plants; design: method as in Yang et al., 2019; settings: ref Yang et al., 2019, cited from earlier work
Arabidopsis plants [2] = test: Foliar administration and thermal imaging of leaf temperature (transpiration), Arabidopsis; assay type: in vivo, Arabidopsis thaliana
Protocol: as §1

HAB1 with RCARs = test: In vitro receptor assay, HAB1 in the presence of RCARs; assay type: biochemical, Arabidopsis thaliana; settings: HAB1, in the presence of RCARs and saturating ABA levels (1 mM)
Protocol: (§2) Expression, purification, and analysis of RCAR and PP2C proteins were performed essentially as described ([Ruschhaupt et al., 2019]). Briefly, the ABA receptors RCAR1, RACR8, and RCAR11 were expressed with an aminoterminal histidine tag using the pSEVA431_LII_6xHIS::RCAR1/RCAR8/RCAR11. ABA coreceptors were expressed as histidine-tagged fusions with the maltose-binding protein using the pSEVA431_LII_6xHIS::MBP::ABI2/HAB1. All constructs were transformed and expressed in Escherichia coli strain BL21 and purified to homogeneity according to supplier’s instruction (GE Healthcare, Chicago, USA). The receptor assay was performed with 100 nM PP2C and a two-fold molar excess of RCAR. Values are means ± SD of three replicates. […] The maximum inhibition was set to 100% in the figures. The phosphatase activity was measured using 4-methylumbelliferyl-phosphate as a substrate ([Meinhard and Grill, 2001]). The increase in fluorescence was recorded over 25 min with excitation and emission wavelengths at 360 and 460 nm, respectively, using a Synergy 2 plate reader (Bio-Tec, Winooski, USA).

RCAR11-ABI2 = test: Yeast ABA signal pathway LUC reporter, RCAR11-ABI2; assay type: cell-based, Arabidopsis thaliana
Protocol: The yeast cultivation and the life luciferase assay were performed as described ([Ruschhaupt et al., 2019]). Briefly, the reporter yeast expressing an ABA-dependent luciferase gene (LUC) was transformed with different combinations of ABA signaling components as indicated. Golden gate cloning ([Binder et al., 2014]) was used to construct pYEAST_LII_5‐6_CEN_URA vector with TDH3 promoter and TDH1 terminator (tTDH1), pYEAST_LII_1‐2_CEN_LEU vector with GK1 promoter and tTDH1, and pYEAST_LII_3‐4_CEN_TRP with the GAL1 promoter (pGAL1) and tTDH1 to express RCARs, PP2Cs, and OST1 (SnRK2.6), respectively ([Ruschhaupt et al., 2019]). The expression of ABF2 in yeast relies on a modified pGREG503 vector, in which pGAL1 ([Jansen et al., 2005]) was replaced by the ADH1 promoter.
Colonies of freshly transformed cells were inoculated in 0.5 mL supplemented synthetic dextrose (SD) medium and incubated at 30°C in a gyratory shaker (Thermoshake-THO500, Gerhardt, Königswinter, Germany) at 200 rpm for 16-18 h. After overnight growth, the cells were harvested and washed in SD medium followed by inoculation in SD medium containing 2% galactose for induction of SnRK2 kinases under the control of the GAL1 promoter and supplementation with ligands at indicated concentrations, to an OD600 of 0.2 in flat-bottom 96-well plates (CytoOne, Starlab, Hamburg, Germany). Yeast cultures were incubated at 30°C and 200 rpm for 16-18 h before determination of LUC activity and cell density. Light emission of yeasts was detected in a HIDEX plate luminometer (HIDEX, Turku, Finland) after injection of 100 µL freshly prepared luciferin substrate (1 mM D-luciferin, Promega) provided in 100 mM citric acid, pH 3 ([Leskinen et al., 2003]) for 5 s and was corrected for background. The LUC activity was normalized to the cell density (OD600) measured in 96-well flat plates (Sarstedt, Nümbrecht, Germany). LUC activity is given as the ratio of light emission to OD600 in counts per second.

ABI2 with RCARs = test: In vitro receptor assay, ABI2 in the presence of RCAR1, RCAR8 or RCAR11; assay type: biochemical, Arabidopsis thaliana
Protocol: as §2

Arabidopsis plants [3] = test: Progressive drought experiment: growth, water consumption, WUE; assay type: in vivo, Arabidopsis thaliana; settings: 30 µM
Protocol: The progressive drought experiment was performed as described ([Yang et al., 2016]). Briefly, 18-day-old Arabidopsis plantlets grown under well-watered and short-day conditions (8 h light with 150 µmol m^-2 s^-1 PAR, 22°C, 50% relative humidity, and 16 h dark with 17°C, 60% relative humidity) were transferred to 0.2 L pots loaded with water-saturated soil (33.4 ± 0.4 g dry soil with 148 ± 2 g water). At the onset of the progressive drought (day 0), water was withheld, and a sealed soil surface prevented evaporation. A slowly increasing water deficit was achieved by transpirational water loss from plants. The progressive drought experiment lasted for eight weeks until mock-treated plants had consumed all the plant-usable water. […] For measuring growth and water consumption, leaf rosettes were regularly photographed, and the pots were weighed. The projected leaf area of Arabidopsis rosettes was analyzed by using Photoshop Elements software (Adobe, San Jose, USA). The consumed water was calculated as the difference in pot weight between day 0 and the designated days. The retained water was expressed as the difference between the pot weight at the end of the drought (day 57) and the weight of the loaded dry soil. Above-ground material was harvested at day 57, and the biomass was determined after drying the material for three days at 60°C to achieve constant weight. WUE was calculated as the ratio of above-ground dry biomass to consumed water. The data for the mock- and ABA-treated plants in the progressive drought experiment were already published ([Yang et al., 2019]).

RCAR1-ABI2 = target: T1, RCAR1-ABI2 (Arabidopsis thaliana, UniProt O04719+Q84MC7); test: In vitro phosphatase assay, ABI2 with RCAR1; assay type: biochemical
T1 construct: 6xHis (N); made in house; host or cells: Escherichia coli BL21
T1 sequence (Q84MC7 1-187): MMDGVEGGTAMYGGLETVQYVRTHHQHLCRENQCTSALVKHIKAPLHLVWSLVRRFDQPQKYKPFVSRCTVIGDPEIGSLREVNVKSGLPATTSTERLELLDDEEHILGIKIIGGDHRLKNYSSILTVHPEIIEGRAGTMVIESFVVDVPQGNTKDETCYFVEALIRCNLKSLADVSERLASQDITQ
T1 sequence (O04719 1-423): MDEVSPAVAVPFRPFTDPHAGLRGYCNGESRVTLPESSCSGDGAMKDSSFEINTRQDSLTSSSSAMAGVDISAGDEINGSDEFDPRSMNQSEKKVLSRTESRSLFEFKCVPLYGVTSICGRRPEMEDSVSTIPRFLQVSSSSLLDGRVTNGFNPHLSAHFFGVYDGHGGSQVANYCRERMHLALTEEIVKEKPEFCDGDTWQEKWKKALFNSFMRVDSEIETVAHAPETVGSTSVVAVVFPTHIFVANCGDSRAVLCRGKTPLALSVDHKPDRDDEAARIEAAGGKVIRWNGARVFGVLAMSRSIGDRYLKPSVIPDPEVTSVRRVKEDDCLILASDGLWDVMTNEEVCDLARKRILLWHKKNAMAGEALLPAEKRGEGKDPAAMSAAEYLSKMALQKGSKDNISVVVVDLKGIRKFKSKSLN
Protocol: as §2

[4] = system: Arabidopsis aba2-1 protoplasts; test: Transient ABA response in Arabidopsis protoplasts (pRD29B::LUC, RCAR11 and ABI2 effectors); assay type: cell-based, Arabidopsis thaliana; settings: aba2-1 protoplasts, 18 h ligand exposure
Protocol: Preparation of Arabidopsis protoplasts, transfection of the effector DNA, and analysis of LUC activity were performed as described ([Tischer et al., 2017]). In essence, 10^5 mesophyll protoplasts from leaves of the ABA deficient mutant aba2-1 ([Schwartz et al., 1997]) were transfected with 4 µg DNA of the pRD29B::LUC construct as an ABA-responsive reporter and 3 µg of p35S::GUS (β-glucuronidase reporter gene) expression cassette as an internal control for normalization. In addition, 3 µg p35S::RCAR11 or the empty vector with the same expression cassette were co-expressed with 0.1 µg p35S::ABI2 effector constructs ([Tischer et al., 2017]), and the ligand-dependent induction of ABA-responsive reporter expression were assessed after incubation at 22°C. The expression of LUC and GUS was determined 18 h after transfection and ligand administration.

pig liver esterase = test: De-esterification of CCPs by pig liver esterase (HPLC); assay type: in vitro ADME; settings: 4 nkat pig liver esterase, 2 h, 25°C
Excerpt: (S)-ABA was purchased from CHEMOS (www.chemos.de). Other chemicals were of the highest purity available and obtained from SigmaAldrich (www.sigmaaldrich.com), ROTH (www.carlroth.com), and J. T. Baker (http://www.avantormaterials.com) unless otherwise indicated. The Arabidopsis (Arabidopsis thaliana) accession Col-0 was received from the Nottingham Arabidopsis Stock Center. The elite wheat (Triticum aestivum) cultivar, Elixer, was provided from Bayerische Landesanstalt für Landwirtschaft, Freising. ABA and CCPs were dissolved in DMSO and diluted to designated concentrations before administration. For de-esterification, 0.2 µmol CCP was treated with 4 nkat pig liver esterase (Sigma-Aldrich, Burlington, MA, USA) for 2 h at 25°C according to supplier’s instruction.

Arabidopsis = system: Arabidopsis; design: method as in Vaidya et al., 2019; settings: 50 µM; ref Vaidya et al., 2019; cited from earlier work
tomato = system: tomato; design: method as in Vaidya et al., 2019; settings: ref Vaidya et al., 2019; cited from earlier work
wheat = system: wheat; design: method as in Vaidya et al., 2019; settings: ref Vaidya et al., 2019; cited from earlier work

CC1=CC(=O)CC(C)(C)[C@@]1(O)/C=C/C(C)=C\C(=O)O [ABA, abscisic acid]
Higher leaf temperature compared to the control (wheat plants; 0.1 mM, one day after administration, averaged from six experiments): approximately 0.8 °C | Leaf temperature increase at 100 μM ABA (wheat plants; 24 h, separate experiments run in parallel to the CCPs): 0.6 ± 0.18 °C and 0.9 ± 0.19 °C and 0.6 ± 0.12 °C and 0.9 ± 0.03 °C and 0.9 ± 0.10 °C and 0.9 ± 0.07 °C | Growth of leaf rosettes compared to mock (Arabidopsis plants [1]; 10 µM, for six weeks): indistinguishable | WUE increase (Arabidopsis plants [1]; 10 µM): 14% | Soil water retained at the end of the drought, of initial soil water (Arabidopsis plants [1]; 30 µM, day 57): about 25% | Reduced projected leaf area (Arabidopsis plants [1]; 30 µM, within 19 days): 20% | Growth of leaf rosettes compared to mock (Arabidopsis plants [1]; 30 µM): growth reduction | WUE increase (Arabidopsis plants [1]; 30 µM): 26% | Time until leaf temperature reached starting values (Arabidopsis plants [2]; 10 µM): eight | Time of optimum of inhibited transpiration (Arabidopsis plants [2]; after single administration): between two and four days after administration | Residual phosphatase activity (HAB1 with RCARs): 4% | LUC reporter induction compared to mock-treated cells (RCAR11-ABI2; 30 µM exogenous ligand, 16 h exposure): approximately eightfold | Residual phosphatase activity (ABI2 with RCARs; ABI2, in the presence of RCARs and saturating ABA levels (1 mM)): 10% | Daily growth reduction (Arabidopsis plants [3]): 1% | IC50 (RCAR1-ABI2): 100 nM

CCCOC(=O)/C=C(\C=C\C(O)(C(C)C)C1(C#N)CC1)CC (stereo not drawn) [CCP3]
Leaf temperature increase, activity compared to ABA (wheat plants; 100 μM, 24 h after administration): higher activity than ABA | Leaf temperature increase, activity compared to ABA (Arabidopsis plants [2]; 10, 30, 100 µM, one day after application): almost as active as the non-esterified CCP2 | Activity and persistence of minimized transpiration compared to ABA (Arabidopsis plants [2]; single application 100 µM, recorded for 19 days): more active and persistent than ABA | Induction of ABA signaling compared to ABA [4]: not observed | Degree of ester-bond cleavage by PLE (conversion into free acid) (pig liver esterase): complete de-esterification | Reporter activation after pig liver esterase treatment (RCAR11-ABI2; 30 µM, PLE-treated prior to yeast exposure): comparable to esterase-treated CCP2 and ABA | Activity in the in vitro receptor assay after esterase treatment (ABI2 with RCARs; pig liver esterase-treated): comparable activity as CCP2 | Growth reduction compared to the control (Arabidopsis plants [3]): about 60% | Leaf temperature increase (Arabidopsis plants [3]; 24 h after the first application): highest temperature increase | Reduction in biomass accumulation compared to the control (Arabidopsis plants [3]; day 57): 60% | Soil water retained at the end of the drought, of initial soil water (Arabidopsis plants [3]; day 57): approximately 75% | Growth of leaf rosettes compared to mock (Arabidopsis plants [3]; three administrations): growth reduction

N#Cc1c(C2CC2)cc(CC(=O)NC2(C(=O)O)CCCCC2)cc1C1CC1 [Opabactin]
Efficacy in elevating leaf temperature (Arabidopsis): ABA-comparable efficacy | Efficiency in controlling transpiration compared to ABA (tomato): more efficient than ABA | Activity in controlling transpiration compared to ABA (wheat): comparable activity
